Here are results for 6 compounds from PubChem BioAssay AID2768 (The Scripps Research Institute Molecular Screening Center, 2010).

Molecules are shown by their SMILES.

Chain of metallo-beta-lactamase IMP-1 (Pseudomonas aeruginosa) (Q79MP6 1-246): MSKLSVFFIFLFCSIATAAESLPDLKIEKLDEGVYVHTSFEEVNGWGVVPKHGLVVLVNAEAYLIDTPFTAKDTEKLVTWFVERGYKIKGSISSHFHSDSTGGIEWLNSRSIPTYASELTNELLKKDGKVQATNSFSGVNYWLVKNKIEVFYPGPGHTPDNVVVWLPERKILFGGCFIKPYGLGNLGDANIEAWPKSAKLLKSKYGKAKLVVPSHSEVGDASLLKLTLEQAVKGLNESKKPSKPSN

This test has as its target metallo-beta-lactamase IMP-1 (Pseudomonas aeruginosa) (UniProt Q79MP6). In words: IMP-1 metallo-beta-lactamase inhibitor potency, late-stage follow-up, biochemical, epi-absorbance, dose response (AID 2768). Conditions: purified IMP-1, absorbance substrate hydrolysis.
Turning to `Cc1cc[c]([Hg+])cc1`, the IC50 (as a rule, the concentration that gives 50% inhibition) was 1.81 µM.
Regarding `COc1cccc[c]1[Hg+]`, the IC50 was 2.33 µM.
To `[Hg+][c]1ccccc1` belongs 1.51 µM; to `CC(=O)Nc1cc[c]([Hg+])cc1`, 3.74 µM.
As for `O=C(O)c1cc[c]([Hg][Cl])cc1`, the concentration for half-maximal inhibition (IC50) is 8.7 µM.
Take `O=C(O)c1ccc[c]([Hg+])c1`: the IC50 was 1.33 µM.
